From patent publication US20230398130A1, “METHODS AND COMPOSITIONS FOR DIFFERENTIATING STEM CELLS” (Massachusetts Institute of Technology, priority 2020, published 2023)

Columns and labels:
[1] = system: ISC-enriched organoids; assay: Primary screen, 384-well 2.5-D organoid differentiation (ENR+CD, 6 days): basal lysozyme secretion (LYZ.NS); format: cell-based, murine; conditions: for Dose.FC.LYZ.NS / Z.LYZ.NS: primary screen; for Dose.FC.LYZ.NS: FC vs plate median; for Dose.FC.LYZ.NS (log 2 fold change, basal lysozyme secretion): vs plate median
Text: (§1) High-throughput screening.

[2] = system: ISC-enriched organoids; assay: Primary screen, 384-well 2.5-D organoid differentiation (ENR+CD, 6 days): carbachol-induced lysozyme secretion (LYZ.S); format: cell-based, murine; conditions: for Dose.FC.LYZ.S: primary screen, FC vs plate median; for Dose.FC.LYZ.S (log 2 fold change, carbachol-induced lysozyme secretion): vs plate median
Text: as §1

[3] = system: ISC-enriched organoids; assay: Primary screen, 384-well 2.5-D organoid differentiation (ENR+CD, 6 days, Target Selective Inhibitor Library, vs whole-plate median): ATP (CellTiter-Glo 3D, CTG); conditions: for Dose.FC.CTG / Z.CTG: primary screen; for Dose.FC.CTG: FC vs plate median; for Dose.FC.CTG (log 2 fold change, ATP): vs plate median
[4] = Dose 10.00 uM, standard z score
[5] = dose 0.08 uM, standard z score of FC
[6] = dose 0.40 uM, standard z score of FC
[7] = dose 2.00 uM, standard z score of FC
[8] = dose 10.00 uM, standard z score of FC

Molecule	Z.LYZ.NS (standard z score) ([1]; dose 0.08 uM)	Dose.FC.LYZ.NS (log 2 fold change, basal lysozyme secretion) ([1]; dose 0.08 uM)	Z.LYZ.NS (standard z score) ([1]; dose 0.40 uM)	Dose.FC.LYZ.NS (log 2 fold change, basal lysozyme secretion) ([1]; dose 0.40 uM)	Z.LYZ.NS (standard z score) ([1]; dose 2.00 uM)	Dose.FC.LYZ.NS (log 2 fold change, basal lysozyme secretion) ([1]; dose 2.00 uM)	Z.LYZ.NS (standard z score) ([1]; dose 10.00 uM)	Dose.FC.LYZ.NS (log 2 fold change, basal lysozyme secretion) ([1]; dose 10.00 uM)	Dose.FC.LYZ.S (log 2 fold change, carbachol-induced lysozyme secretion) ([2]; dose 0.08 uM)	Dose.FC.LYZ.S (log 2 fold change, carbachol-induced lysozyme secretion) ([2]; dose 0.40 uM)	Dose.FC.LYZ.S (log 2 fold change, carbachol-induced lysozyme secretion) ([2]; dose 2.00 uM)	Dose.FC.LYZ.S (log 2 fold change, carbachol-induced lysozyme secretion) ([2]; dose 10.00 uM)	Z.CTG (standard z score) ([3]; dose 0.08 uM)	Dose.FC.CTG (log 2 fold change, ATP) ([3]; dose 0.08 uM)	Z.CTG (standard z score) ([3]; dose 0.40 uM)	Dose.FC.CTG (log 2 fold change, ATP) ([3]; dose 0.40 uM)	Z.CTG (standard z score) ([3]; dose 2.00 uM)	Dose.FC.CTG (log 2 fold change, ATP) ([3]; dose 2.00 uM)	Z.CTG (standard z score) ([3]; dose 10.00 uM)	Dose.FC.CTG (log 2 fold change, ATP) ([3]; dose 10.00 uM)	other results
CC1=C(C(=O)Nc2cc3cn[nH]c3cc2F)C(c2ccc(C(F)(F)F)cc2)CC(=O)N1 (centres unmarked) [GSK429286A]	–	–	–	–	–	–	–	–	–	–	–	–	–	–	–	–	–	–	–	–	Dose.FC.LYZ.NS ([1]; Dose 0.08 uM): 0.137 log 2 fold change; Z.LYZ.NS ([1]; Dose 0.08 uM, standard z score): 1.197; Dose.FC.LYZ.NS ([1]; Dose 0.40 uM): 0.128 log 2 fold change; Z.LYZ.NS ([1]; Dose 0.40 uM, standard z score): 1.117; Dose.FC.LYZ.NS ([1]; Dose 2.00 uM): 0.140 log 2 fold change; Z.LYZ.NS ([1]; Dose 2.00 uM, standard z score): 1.222; Dose.FC.LYZ.NS ([1]; Dose 10.00 uM): 0.059 log 2 fold change; Z.LYZ.NS [1, 4]: 0.517; Dose.FC.LYZ.S ([2]; Dose 0.08 uM): 0.247 log 2 fold change; Dose.FC.LYZ.S ([2]; Dose 0.40 uM): 0.283 log 2 fold change; Dose.FC.LYZ.S ([2]; Dose 2.00 uM): 0.245 log 2 fold change; Dose.FC.LYZ.S ([2]; Dose 10.00 uM): 0.099 log 2 fold change; Dose.FC.CTG ([3]; Dose 0.08 uM): 0.527 log 2 fold change; Z.CTG ([3]; Dose 0.08 uM, standard z score): 1.260; Dose.FC.CTG ([3]; Dose 0.40 uM): 0.545 log 2 fold change; Z.CTG ([3]; Dose 0.40 uM, standard z score): 1.302; Dose.FC.CTG ([3]; Dose 2.00 uM): 0.488 log 2 fold change; Z.CTG ([3]; Dose 2.00 uM, standard z score): 1.166; Dose.FC.CTG ([3]; Dose 10.00 uM): 0.370 log 2 fold change; Z.CTG [3, 4]: 0.883
CCC(=O)Nc1cccc(Oc2nc(Nc3ccc(N4CCN(C)CC4)cc3OC)ncc2Cl)c1 [WZ4003]	0.644	0.074	−0.359	−0.041	−0.151	−0.017	−0.850	−0.098	0.117	−0.034	−0.035	−0.142	0.896	0.375	0.413	0.173	0.180	0.076	−0.043	−0.018	–
BAM7	–	–	–	–	–	–	–	–	–	–	–	–	–	–	–	–	–	–	–	–	Dose.FC.LYZ.NS ([1]; dose 0.08 uM, ENR+CD 6 days): 0.045 log 2 fold change; Z.LYZ.NS [1, 5]: 0.391; Dose.FC.LYZ.NS ([1]; dose 0.40 uM, ENR+CD 6 days): −0.009 log 2 fold change; Z.LYZ.NS [1, 6]: −0.082; Dose.FC.LYZ.NS ([1]; dose 2.00 uM, ENR+CD 6 days): 0.057 log 2 fold change; Z.LYZ.NS [1, 7]: 0.498; Dose.FC.LYZ.NS ([1]; dose 10.00 uM, ENR+CD 6 days): −0.007 log 2 fold change; Z.LYZ.NS [1, 8]: −0.063; Dose.FC.LYZ.S ([2]; dose 0.08 uM, ENR+CD 6 days): 0.079 log 2 fold change; Dose.FC.LYZ.S ([2]; dose 0.40 uM, ENR+CD 6 days): 0.039 log 2 fold change; Dose.FC.LYZ.S ([2]; dose 2.00 uM, ENR+CD 6 days): 0.019 log 2 fold change; Dose.FC.LYZ.S ([2]; dose 10.00 uM, ENR+CD 6 days): −0.020 log 2 fold change; Dose.FC.CTG ([3]; dose 0.08 uM, ENR+CD 6 days): 0.209 log 2 fold change; Z.CTG [3, 5]: 0.498; Dose.FC.CTG ([3]; dose 0.40 uM, ENR+CD 6 days): −0.010 log 2 fold change; Z.CTG [3, 6]: −0.024; Dose.FC.CTG ([3]; dose 2.00 uM, ENR+CD 6 days): −0.156 log 2 fold change; Z.CTG [3, 7]: −0.373; Dose.FC.CTG ([3]; dose 10.00 uM, ENR+CD 6 days): −0.114 log 2 fold change; Z.CTG [3, 8]: −0.272
COCC[n+]1c2c(n(Cc3cnccn3)c1C)C(=O)c1ccccc1C2=O.[Br-] [YM155 (Sepantronium Bromide)]	0.995	0.114	−0.266	−0.031	−0.714	−0.082	−0.839	−0.096	0.172	−0.039	−0.137	−0.210	0.531	0.222	−0.198	−0.083	−1.100	−0.460	−2.316	−0.970	–
